From the supplement of paper PMC11451515

Tested on: SEM cells
Test: cell viability relative to DMSO control; higher = less cytotoxic
Conditions: 48 h
How it was run: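 NOMO1 or SEM cells were plated at 500 cells/well and P12-Ichikawa cells at 1000 cells/well in 1536-well plates (5 μl), after each leukemia line had been adapted for at least four passages in each medium. Pin dosing delivered library compounds in DMSO at 11 threefold concentrations, 47 μM to 0.79 nM. CellTiter-Glo One luminescence was read after 48 h at 37°C. Viability is reported as a per-plate percentage of DMSO wells, with cell-free wells as background.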

[1] = HPLM + 10% dialyzed FBS, 0.000781 µM
[2] = HPLM + 10% dialyzed FBS, 0.00234 µM
[3] = HPLM + 10% dialyzed FBS, 0.00702 µM
[4] = HPLM + 10% dialyzed FBS, 0.0211 µM
[5] = HPLM + 10% dialyzed FBS, 0.0632 µM
[6] = HPLM + 10% dialyzed FBS, 0.19 µM
[7] = HPLM + 10% dialyzed FBS, 0.569 µM
[8] = HPLM + 10% dialyzed FBS, 1.71 µM
[9] = HPLM + 10% dialyzed FBS, 5.12 µM
[10] = HPLM + 10% dialyzed FBS, 15.4 µM
[11] = HPLM + 10% dialyzed FBS, 46.1 µM
[12] = RPMI 5 mM glucose + 10% FBS, 0.000781 µM
[13] = RPMI 5 mM glucose + 10% FBS, 0.00234 µM
[14] = RPMI 5 mM glucose + 10% FBS, 0.00702 µM
[15] = RPMI 5 mM glucose + 10% FBS, 0.0211 µM
[16] = RPMI 5 mM glucose + 10% FBS, 0.0632 µM
[17] = RPMI 5 mM glucose + 10% FBS, 0.19 µM
[18] = RPMI 5 mM glucose + 10% FBS, 0.569 µM
[19] = RPMI 5 mM glucose + 10% FBS, 1.71 µM
[20] = RPMI 5 mM glucose + 10% FBS, 5.12 µM
[21] = RPMI 5 mM glucose + 10% FBS, 15.4 µM
[22] = RPMI 5 mM glucose + 10% FBS, 46.1 µM
[23] = RPMI 5 mM glucose + 10% dialyzed FBS, 0.000781 µM
[24] = RPMI 5 mM glucose + 10% dialyzed FBS, 0.00234 µM
[25] = RPMI 5 mM glucose + 10% dialyzed FBS, 0.00702 µM
[26] = RPMI 5 mM glucose + 10% dialyzed FBS, 0.0211 µM
[27] = RPMI 5 mM glucose + 10% dialyzed FBS, 0.0632 µM
[28] = RPMI 5 mM glucose + 10% dialyzed FBS, 0.19 µM
[29] = RPMI 5 mM glucose + 10% dialyzed FBS, 0.569 µM
[30] = RPMI 5 mM glucose + 10% dialyzed FBS, 1.71 µM
[31] = RPMI 5 mM glucose + 10% dialyzed FBS, 5.12 µM
[32] = RPMI 5 mM glucose + 10% dialyzed FBS, 15.4 µM
[33] = RPMI 5 mM glucose + 10% dialyzed FBS, 46.1 µM

Structure (SMILES)	cell viability [1] [%]	cell viability [2] [%]	cell viability [3] [%]	cell viability [4] [%]	cell viability [5] [%]	cell viability [6] [%]	cell viability [7] [%]	cell viability [8] [%]	cell viability [9] [%]	cell viability [10] [%]	cell viability [11] [%]	cell viability [12] [%]	cell viability [13] [%]	cell viability [14] [%]	cell viability [15] [%]	cell viability [16] [%]	cell viability [17] [%]	cell viability [18] [%]	cell viability [19] [%]	cell viability [20] [%]	cell viability [21] [%]	cell viability [22] [%]	cell viability [23] [%]	cell viability [24] [%]	cell viability [25] [%]	cell viability [26] [%]	cell viability [27] [%]	cell viability [28] [%]	cell viability [29] [%]	cell viability [30] [%]	cell viability [31] [%]	cell viability [32] [%]	cell viability [33] [%]
COc1cc2c(Oc3ccc(NC(=O)C4(C(=O)Nc5ccc(F)cc5)CC4)cc3F)ccnc2cc1OCCCN1CCOCC1	45.9	38.6	35.5	35.9	33.8	31.9	32.3	16.1	19.9	17.1	3.11	59.2	45.2	42.3	43.6	37.4	33.6	42.5	13.5	10.9	7.49	3.41	41.9	28.5	34.8	28.2	23.9	25.3	25.7	9.12	11.7	8.88	2.51
CC(=O)N1CCN(c2ccc(OCc3nn(C)c(C)c3-c3cccc4c(CCCOc5cccc6ccccc56)c(C(=O)O)n(Cc5cccnc5)c34)cc2)CC1	92.6	91.9	106	112	107	126	115	120	122	108	108	87.6	78	86.4	93.6	81.8	103	108	115	105	104	84.7	101	85.1	115	112	119	127	112	115	109	113	104
Oc1ccc(C2CCN(c3ccnc4ccccc34)CC2)cc1O	55.8	98.9	88.8	93.5	118	94.1	95.4	89.5	76.6	56.3	30.7	56.9	98	93.6	94.6	106	116	96.7	83	62.3	43.9	13.6	54.9	92.2	97.3	114	114	115	88.7	96.2	59.1	45.9	39.2
CN1\C(=C(\O)C2=C(C=CS2)[S+]1([O-])=O)C(=O)NC3=CC=CC=N3	106	108	112	103	114	112	109	105	106	98.4	102	95	107	112	100	114	101	112	103	103	108	90.9	110	95.5	112	108	107	112	104	112	106	106	103
CC(C)(C)C(=O)Oc1ccc([S+](=O)([O-])Nc2ccccc2C(=O)NCC(=O)O)cc1	107	106	111	109	116	122	74.3	58.9	123	128	124	95.5	93.9	88.9	92.8	104	107	95.1	48.8	91.6	96.7	90.4	106	99.3	104	123	94.6	116	93.7	50.6	98.8	109	124
Cc1cc(Nc2nc(N[C@@H](C)c3ncc(F)cn3)ncc2Cl)n[nH]1	93	97.4	109	114	103	106	102	99.4	61.2	21.7	19.4	120	129	114	110	112	126	110	26.2	19	17.1	20.3											
CCCCCCCc1ccc(CCc2cccc(O)c2C(=O)O)cc1												82.3	113	126	128	120	112	111	122	105	107	101	75.5	121	135	130	119	111	134	119	110	125	107
CN1CCC(CC1)COC2=CN=C(N=C2)C3=CC(=CC=C3)CN4/N=C(\C=C/C4=O)C5=CC(=CC=C5)C#N	78.8	105	98	102	112	117	108	104	107	89.9	92.7	67.6	87.1	85.4	66.2	67.5	75.6	79.9	74.7	66.5	74.9	73.2	69.8	103	110	114	99.2	91.4	115	104	106	87.3	105
